Measurements as given in ChEMBL document CHEMBL3885861, “Open TG-GATES”.

Species: Rattus norvegicus
Assay: Open TG-GATES - Regimen: Daily Repeat
Format: toxicity, organism-based, Sprague-Dawley
Set-up: regimen Daily Repeat, gender Male, age 6 weeks
Conditions: in vivo, po, route gavage; for APTT / Bas / Eos / Fbg / Hb / Ht / Lym / MCH / MCHC / MCV / Mono / Neu / PT / Plat / RBC / Ret / WBC: tissue Blood; for KIDNEY_L / KIDNEY_R / KIDNEY_TOTAL: tissue Kidney; for LIVER: tissue Liver; for A/G / ALP / ALT / AST / BUN / CRE / Ca / Cl / DBIL / GLC / IP / K / LDH / Na / PL / RALB / TBIL / TC / TG / TP / gamma-GTP: tissue Plasma
[1] = 200 mg/kg, 72 h, dose level Middle, time 3 day
[2] = 200 mg/kg, […], dose level Middle, time 7 day
[3] = 200 mg/kg, […], dose level Middle, time 14 day
[4] = 200 mg/kg, […], dose level Middle, time 28 day
[5] = 600 mg/kg, 72 h, dose level High, time 3 day
[6] = 600 mg/kg, […], dose level High, time 7 day
[7] = 600 mg/kg, […], dose level High, time 14 day
[8] = 600 mg/kg, […], dose level High, time 28 day

C[C@](N)(Cc1ccc(O)c(O)c1)C(=O)O [METHYLDOPA]
TERMINAL_BW [1]: 196.2 g
APTT [1]: 15.9 s
Bas [1]: 0%
Eos [1]: 0.8%
Fbg [1]: 292.8 mg/dL
Hb [1]: 13.8 g/dL
Ht [1]: 40.6%
Lym [1]: 79.4%
MCH [1]: 22.1 pg
MCHC [1]: 34%
MCV [1]: 65 fL
Mono [1]: 2.6%
Neu [1]: 16.4%
PT [1]: 12.7 s
Plat [1]: 107.2 x10_4/uL
RBC [1]: 626 x10_4/ul
Ret [1]: 7.2%
WBC [1]: 59.1 x10_2/uL
KIDNEY_L [1]: 0.9 g
KIDNEY_R [1]: 0.9 g
KIDNEY_TOTAL [1]: 1.9 g
LIVER [1]: 8.5 g
A/G [1]: 0.9
ALP [1]: 1722.4 IU/L
ALT [1]: 53.4 IU/L
AST [1]: 73 IU/L
BUN [1]: 16.6 mg/dL
CRE [1]: 0.2 mg/dL
Ca [1]: 11.2 mg/dL
Cl [1]: 105.8 meq/L
DBIL [1]: 0.008 mg/dL
GLC [1]: 174 mg/dL
IP [1]: 8.4 mg/dL
K [1]: 4.5 meq/L
LDH [1]: 71.4 IU/L
Na [1]: 145.8 meq/L
PL [1]: 144 mg/dL
RALB [1]: 2.7 g/dL
TBIL [1]: 0.062 mg/dL
TC [1]: 97 mg/dL
TG [1]: 34 mg/dL
TP [1]: 5.8 g/dL
gamma-GTP [1]: 1 IU/L
TERMINAL_BW [2]: 218.2 g
TERMINAL_BW [3]: 271 g
TERMINAL_BW [4]: 346.4 g
APTT [2]: 17.4 s
Bas [2]: 0%
Eos [2]: 1%
Fbg [2]: 269.4 mg/dL
Hb [2]: 14.1 g/dL
Ht [2]: 40.6%
Lym [2]: 78.8%
MCH [2]: 21.5 pg
MCHC [2]: 34.7%
MCV [2]: 61.9 fL
Mono [2]: 3.6%
Neu [2]: 16.2%
PT [2]: 12.2 s
Plat [2]: 122.9 x10_4/uL
RBC [2]: 656.4 x10_4/ul
Ret [2]: 4.5%
WBC [2]: 71.2 x10_2/uL
APTT [3]: 16.1 s
Bas [3]: 0%
Eos [3]: 1%
Fbg [3]: 278.2 mg/dL
Hb [3]: 13.8 g/dL
Ht [3]: 39.5%
Lym [3]: 80.6%
MCH [3]: 20.9 pg
MCHC [3]: 34.9%
MCV [3]: 59.9 fL
Mono [3]: 1.8%
Neu [3]: 16.2%
PT [3]: 14.2 s
Plat [3]: 111.8 x10_4/uL
RBC [3]: 659.4 x10_4/ul
Ret [3]: 4.9%
WBC [3]: 82.5 x10_2/uL
APTT [4]: 17.8 s
Bas [4]: 0%
Eos [4]: 1.2%
Fbg [4]: 280 mg/dL
Hb [4]: 15.1 g/dL
Ht [4]: 43%
Lym [4]: 81.2%
MCH [4]: 19.8 pg
MCHC [4]: 35.1%
MCV [4]: 56.5 fL
Mono [4]: 1.4%
Neu [4]: 15.6%
PT [4]: 14 s
Plat [4]: 101.7 x10_4/uL
RBC [4]: 760.8 x10_4/ul
Ret [4]: 2.3%
WBC [4]: 76.9 x10_2/uL
KIDNEY_L [2]: 0.9 g
KIDNEY_R [2]: 0.9 g
KIDNEY_TOTAL [2]: 1.9 g
KIDNEY_L [3]: 1.1 g
KIDNEY_R [3]: 1 g
KIDNEY_TOTAL [3]: 2.1 g
KIDNEY_L [4]: 1.2 g
KIDNEY_R [4]: 1.2 g
KIDNEY_TOTAL [4]: 2.4 g
LIVER [2]: 8.8 g
LIVER [3]: 10.2 g
LIVER [4]: 12.9 g
A/G [2]: 0.9
ALP [2]: 1381.2 IU/L
ALT [2]: 45.4 IU/L
AST [2]: 67.8 IU/L
BUN [2]: 14.2 mg/dL
CRE [2]: 0.2 mg/dL
Ca [2]: 10.8 mg/dL
Cl [2]: 107.4 meq/L
DBIL [2]: 0.01 mg/dL
GLC [2]: 179.8 mg/dL
IP [2]: 7.7 mg/dL
K [2]: 4.3 meq/L
LDH [2]: 54.2 IU/L
Na [2]: 143.4 meq/L
PL [2]: 132.4 mg/dL
RALB [2]: 2.7 g/dL
TBIL [2]: 0.068 mg/dL
TC [2]: 84.2 mg/dL
TG [2]: 36.2 mg/dL
TP [2]: 5.7 g/dL
gamma-GTP [2]: 0.8 IU/L
A/G [3]: 0.8
ALP [3]: 1316.6 IU/L
ALT [3]: 42.2 IU/L
AST [3]: 61.8 IU/L
BUN [3]: 12.6 mg/dL
CRE [3]: 0.2 mg/dL
Ca [3]: 11 mg/dL
Cl [3]: 105.2 meq/L
DBIL [3]: 0.002 mg/dL
GLC [3]: 182.2 mg/dL
IP [3]: 7.1 mg/dL
K [3]: 4.4 meq/L
LDH [3]: 58 IU/L
Na [3]: 141.6 meq/L
PL [3]: 137 mg/dL
RALB [3]: 2.6 g/dL
TBIL [3]: 0.054 mg/dL
TC [3]: 87.6 mg/dL
TG [3]: 35.2 mg/dL
TP [3]: 5.7 g/dL
gamma-GTP [3]: 0.8 IU/L
A/G [4]: 0.8
ALP [4]: 1006.8 IU/L
ALT [4]: 39.8 IU/L
AST [4]: 55.4 IU/L
BUN [4]: 13.2 mg/dL
CRE [4]: 0.2 mg/dL
Ca [4]: 10.7 mg/dL
Cl [4]: 104.8 meq/L
DBIL [4]: 0.018 mg/dL
GLC [4]: 182.2 mg/dL
IP [4]: 6.4 mg/dL
K [4]: 4 meq/L
LDH [4]: 39.8 IU/L
Na [4]: 142.8 meq/L
PL [4]: 144.6 mg/dL
RALB [4]: 2.7 g/dL
TBIL [4]: 0.052 mg/dL
TC [4]: 89.2 mg/dL
TG [4]: 50.8 mg/dL
TP [4]: 6.1 g/dL
gamma-GTP [4]: 1.2 IU/L
TERMINAL_BW [5]: 188.1 g
APTT [5]: 17.3 s
Bas [5]: 0%
Eos [5]: 1.2%
Fbg [5]: 240 mg/dL
Hb [5]: 14.2 g/dL
Ht [5]: 41.8%
Lym [5]: 83.2%
MCH [5]: 21.4 pg
MCHC [5]: 34%
MCV [5]: 62.9 fL
Mono [5]: 2.4%
Neu [5]: 12.6%
PT [5]: 12.8 s
Plat [5]: 108 x10_4/uL
RBC [5]: 665.2 x10_4/ul
Ret [5]: 4.2%
WBC [5]: 54.3 x10_2/uL
KIDNEY_L [5]: 0.9 g
KIDNEY_R [5]: 0.9 g
KIDNEY_TOTAL [5]: 1.7 g
LIVER [5]: 8.1 g
A/G [5]: 0.8
ALP [5]: 1746 IU/L
ALT [5]: 54.4 IU/L
AST [5]: 74 IU/L
BUN [5]: 18.2 mg/dL
CRE [5]: 0.2 mg/dL
Ca [5]: 10.9 mg/dL
Cl [5]: 106.6 meq/L
DBIL [5]: 0.01 mg/dL
GLC [5]: 167.2 mg/dL
IP [5]: 7.8 mg/dL
K [5]: 4.1 meq/L
LDH [5]: 72.2 IU/L
Na [5]: 146.2 meq/L
PL [5]: 153 mg/dL
RALB [5]: 2.6 g/dL
TBIL [5]: 0.054 mg/dL
TC [5]: 95.6 mg/dL
TG [5]: 37.2 mg/dL
TP [5]: 5.5 g/dL
gamma-GTP [5]: 1 IU/L
TERMINAL_BW [6]: 207.4 g
TERMINAL_BW [7]: 241.7 g
TERMINAL_BW [8]: 321.4 g
APTT [6]: 16.1 s
Bas [6]: 0%
Eos [6]: 1.2%
Fbg [6]: 259 mg/dL
Hb [6]: 14.4 g/dL
Ht [6]: 42.1%
Lym [6]: 81.6%
MCH [6]: 20.5 pg
MCHC [6]: 34.2%
MCV [6]: 60 fL
Mono [6]: 2.8%
Neu [6]: 14.4%
PT [6]: 12.2 s
Plat [6]: 106.1 x10_4/uL
RBC [6]: 702 x10_4/ul
Ret [6]: 3.6%
WBC [6]: 67.6 x10_2/uL
APTT [7]: 16.5 s
Bas [7]: 0%
Eos [7]: 0.8%
Fbg [7]: 277 mg/dL
Hb [7]: 14.2 g/dL
Ht [7]: 40.9%
Lym [7]: 83.8%
MCH [7]: 21.1 pg
MCHC [7]: 34.7%
MCV [7]: 60.8 fL
Mono [7]: 1.8%
Neu [7]: 13%
PT [7]: 14.2 s
Plat [7]: 111.5 x10_4/uL
RBC [7]: 673.2 x10_4/ul
Ret [7]: 4.6%
WBC [7]: 86.9 x10_2/uL
APTT [8]: 16.8 s
Bas [8]: 0%
Eos [8]: 1.2%
Fbg [8]: 300.8 mg/dL
Hb [8]: 14.9 g/dL
Ht [8]: 43.2%
Lym [8]: 75.4%
MCH [8]: 19.7 pg
MCHC [8]: 34.5%
MCV [8]: 57.2 fL
Mono [8]: 2%
Neu [8]: 21.2%
PT [8]: 14.1 s
Plat [8]: 101.5 x10_4/uL
RBC [8]: 756.4 x10_4/ul
Ret [8]: 2.4%
WBC [8]: 68.4 x10_2/uL
KIDNEY_L [6]: 0.9 g
KIDNEY_R [6]: 0.9 g
KIDNEY_TOTAL [6]: 1.8 g
KIDNEY_L [7]: 1 g
KIDNEY_R [7]: 1 g
KIDNEY_TOTAL [7]: 2 g
KIDNEY_L [8]: 1.2 g
KIDNEY_R [8]: 1.2 g
KIDNEY_TOTAL [8]: 2.5 g
LIVER [6]: 8.1 g
LIVER [7]: 9.1 g
LIVER [8]: 11.7 g
A/G [6]: 0.9
ALP [6]: 1646.8 IU/L
ALT [6]: 51 IU/L
AST [6]: 88.4 IU/L
BUN [6]: 14.6 mg/dL
CRE [6]: 0.2 mg/dL
Ca [6]: 10.9 mg/dL
Cl [6]: 107.6 meq/L
DBIL [6]: 0.008 mg/dL
GLC [6]: 179.2 mg/dL
IP [6]: 7.8 mg/dL
K [6]: 4.4 meq/L
LDH [6]: 66.4 IU/L
Na [6]: 146 meq/L
PL [6]: 133.2 mg/dL
RALB [6]: 2.7 g/dL
TBIL [6]: 0.064 mg/dL
TC [6]: 87.4 mg/dL
TG [6]: 26 mg/dL
TP [6]: 5.7 g/dL
gamma-GTP [6]: 1.2 IU/L
A/G [7]: 0.8
ALP [7]: 1330.4 IU/L
ALT [7]: 43.8 IU/L
AST [7]: 65 IU/L
BUN [7]: 12.2 mg/dL
CRE [7]: 0.2 mg/dL
Ca [7]: 11.2 mg/dL
Cl [7]: 105.4 meq/L
DBIL [7]: 0.002 mg/dL
GLC [7]: 179.6 mg/dL
IP [7]: 7.9 mg/dL
K [7]: 4.7 meq/L
LDH [7]: 53.4 IU/L
Na [7]: 143 meq/L
PL [7]: 139.4 mg/dL
RALB [7]: 2.7 g/dL
TBIL [7]: 0.054 mg/dL
TC [7]: 91 mg/dL
TG [7]: 26.4 mg/dL
TP [7]: 5.8 g/dL
gamma-GTP [7]: 1 IU/L
A/G [8]: 0.8
ALP [8]: 1178.8 IU/L
ALT [8]: 40 IU/L
AST [8]: 56.8 IU/L
BUN [8]: 13 mg/dL
CRE [8]: 0.2 mg/dL
Ca [8]: 11 mg/dL
Cl [8]: 104.4 meq/L
DBIL [8]: 0.016 mg/dL
GLC [8]: 177.2 mg/dL
IP [8]: 7.4 mg/dL
K [8]: 4.3 meq/L
LDH [8]: 39.2 IU/L
Na [8]: 144.8 meq/L
PL [8]: 140.6 mg/dL
RALB [8]: 2.7 g/dL
TBIL [8]: 0.062 mg/dL
TC [8]: 84.4 mg/dL
TG [8]: 37.6 mg/dL
TP [8]: 6 g/dL
gamma-GTP [8]: 1 IU/L
